Source: US10851067B2, “Kv7 channel activators compositions and methods of use” (Knopp Biosciences LLC, priority 2018, dated 2020)

Molecular target: Kv7.2/7.3 (Homo sapiens, UniProt O43525+O43526)
Test: Kv7.2/7.3 Thallium Flux Assay
Format: cell-based
Design: host or cells: HEK cells, tetracycline-inducible expression
Conditions: read-out: Kv7.2/7.3 Activity: EC50 of Kv7.2/Kv7.3 activation
Description: The Thallium Flux Assay is used as a surrogate indicator of potassium channel activity.
The experimental protocol was adapted from the FluxOR™ II Green Potassium Ion Channel Assay User Guide (Pub. No. MAN0016084, Invitrogen). Conditions were optimized for the Kv7.2/7.3 cell line.
The hKV7.2/7.3 cell line was obtained from Chantest (Cleveland, Ohio 44128) cat. #CT6147.
Kv7.2/7.3 cells were maintained in a media containing DMEM/F12; 50/50 (GIBCO cat. #11330), 10% Fetal Bovine Serum (FBS) (GIBCO cat. #26140), 100 units/mL Penicillin-Streptomycin (GIBCO cat. #15140), 0.005 mg/ml Blasticidin (SIGMA 15205), 0.5 mg/mL Geneticin (GIBCO cat. #10131), and 0.1 mg/mL Zeocin (GIBCO cat. #R25001). One day prior to experimentation, cells were plated in 96 well clear bottom plates (Corning cat. #353219) in a media without Blasticidin, Geneticin, or Zeocin. Channel expression was induced by adding tetracycline (Bioline cat. #BIO87030) at a final concentration of 10 ng/mL.
The test compound is diluted in a mixture of 0.1% DMSO/extracellular solution with an eight-point concentration range from 0.014 μM to 30 μM. Serial dilutions were made on a Biomek NXP (BECKMAN COULTER).
Measurement and Data Analysis:
A plate reader (Enspire, Perkin Elmer) is used to characterize the ion-channel modulating properties of novel compounds using an excitation wavelength of 475 nm and an emission wavelength of 530 nm. After a 15 sec baseline measurement, the stimulus buffer containing thallium and potassium is injected. A final endpoint measure is taken after 90 sec. Responses are normalized to positive control (retigabine, 30 µM max). Mean normalized responses at each concentration tested are fit to the standard Hill equation to generate an EC50 and maximal response.

SMILES | EC50
CC(C)(n1c(NC(=O)CC2CC(F)(F)C2(F)F)nc2ccc(C#N)cc21)C(F)(F)F (single isomer, unassigned) [Example 488, N-(6-cyano-1-(1,1,1-trifluoro-2-methylpropan-2-yl)-1H-benzo[d]imidazol-2-yl)-2-(2,2,3,3-tetrafluorocyclobutyl)acetamide] | < 1000 nM
CC(C(=O)Nc1nc2ccc(C(C)(C)O)cc2n1C1(C)CCC1)C1(C(F)(F)F)CC1 (single isomer, unassigned) [Example 489, N-(6-(2-hydroxypropan-2-yl)-1-(1-methylcyclobutyl)-1H-benzo[d]imidazol-2-yl)-2-(1-(trifluoromethyl)cyclopropyl) propanamide] | < 1000 nM
CC(C(=O)Nc1nc2ccc(C(C)(C)O)cc2n1C1(C)CCC1)C(C)(C)C(F)(F)F (single isomer, unassigned) [Example 492, 4,4,4-trifluoro-N-(6-(2-hydroxypropan-2-yl)-1-(1-methylcyclobutyl)-1H-benzo[d]imidazol-2-yl)-2,3,3-trimethylbutanamide] | < 1000 nM
CC1(n2c(NC(=O)CC3CC(F)(F)C3(F)F)nc3ccc(C#N)c(OC(F)(F)F)c32)CCC1 (single isomer, unassigned) [Example 493, N-(6-cyano-1-(1-methylcyclobutyl)-7-(trifluoromethoxy)-1H-benzo[d]imidazol-2-yl)-2-(2,2,3,3-tetrafluorocyclobutyl)acetamide] | < 1000 nM
CC(C(=O)Nc1nc2c(F)cc(C#N)cc2n1C1(C)CCC1)C1(C(F)(F)F)CC1 (single isomer, unassigned) [Example 494, N-(6-cyano-4-fluoro-1-(1-methylcyclobutyl)-1H-benzo[d]imidazol-2-yl)-2-(1-(trifluoromethyl)cyclopropyl)propanamide] | < 1000 nM
CC(C)(C)n1c(NC(=O)CC2CC(F)(F)C2(F)F)nc2c(F)cc(C#N)c(F)c21 (single isomer, unassigned) [Example 496, N-(1-(tert-butyl)-6-cyano-4,7-difluoro-1H-benzo[d]imidazol-2-yl)-2-(2,2,3,3-tetrafluorocyclobutyl)acetamide] | < 1000 nM
CC(C(=O)Nc1nc2c(F)cc(C(C)(C)O)cc2n1C1CCC1)C1(C(F)(F)F)CC1 (single isomer, unassigned) [Example 497, N-(1-cyclobutyl-4-fluoro-6-(2-hydroxypropan-2-yl)-1H-benzo[d]imidazol-2-yl)-2-(1-(trifluoromethyl)cyclopropyl)propanamide] | < 1000 nM
CC1(n2c(NC(=O)CC3CC(F)(F)C3(F)F)nc3cc(F)c(F)cc32)CCC1 (single isomer, unassigned) [Example 499, N-(5,6-difluoro-1-(1-methylcyclobutyl)-1H-benzo[d]imidazol-2-yl)-2-(2,2,3,3-tetrafluorocyclobutyl)acetamide] | < 1000 nM
CC(C)(O)c1cc(F)c2nc(NC(=O)CC3CC(F)(F)C3(F)F)n(C3(C)CCC3)c2c1 (single isomer, unassigned) [Example 500, N-(4-fluoro-6-(2-hydroxypropan-2-yl)-1-(1-methylcyclobutyl)-1H-benzo[d]imidazol-2-yl)-2-(2,2,3,3-tetrafluorocyclobutyl)acetamide] | < 1000 nM
CC(C(=O)Nc1nc2c(F)cc(C#N)cc2n1C1(C)CCC1)C1(C(F)(F)F)CC1 (single isomer, unassigned) [Example 503, N-(6-cyano-4-fluoro-1-(1-methylcyclobutyl)-1H-benzo[d]imidazol-2-yl)-2-(1-(trifluoromethyl)cyclopropyl)propanamide] | < 1000 nM
CC1(n2c(NC(=O)CC3CC(F)(F)C3(F)F)nc3c(F)cc(C#N)c(F)c32)CCC1 (single isomer, unassigned) [Example 504, N-(6-cyano-4,7-difluoro-1-(1-methylcyclobutyl)-1H-benzo[d]imidazol-2-yl)-2-(2,2,3,3-tetrafluorocyclobutyl)acetamide] | < 1000 nM
COc1cc(C#N)cc2c1nc(NC(=O)CC1CC(F)(F)C1(F)F)n2C(C)(C)C (single isomer, unassigned) [Example 506, N-(1-(tert-butyl)-6-cyano-4-methoxy-1H-benzo[d]imidazol-2-yl)-2-(2,2,3,3-tetrafluorocyclobutyl)acetamide] | < 1000 nM
CC(C(=O)Nc1nc2c(F)cc(C(C)(C)O)cc2n1C1CCC1)C1(C(F)(F)F)CC1 (single isomer, unassigned) [Example 508, N-(1-cyclobutyl-4-fluoro-6-(2-hydroxypropan-2-yl)-1H-benzo[d]imidazol-2-yl)-2-(1-(trifluoromethyl)cyclopropyl)propanamide] | 1000 to 3000 nM
CC(C)(C)n1c(NC(=O)CC2CC(F)(F)C2(F)F)nc2ccc(F)c(F)c21 (single isomer, unassigned) [Example 509, N-(1-(tert-butyl)-6,7-difluoro-1H-benzo[d]imidazol-2-yl)-2-(2,2,3,3-tetrafluorocyclobutyl)acetamide] | < 1000 nM
CC1(n2c(NC(=O)CC3CC(F)(F)C3(F)F)nc3c(F)cc(C#N)cc32)CCC1 (single isomer, unassigned) [Example 512, N-(6-cyano-4-fluoro-1-(1-methylcyclobutyl)-1H-benzo[d]imidazol-2-yl)-2-(2,2,3,3-tetrafluorocyclobutyl)acetamide] | < 1000 nM
CC1(n2c(NC(=O)CC3CC(F)(F)C3(F)F)nc3ccc(F)c(F)c32)CCC1 (single isomer, unassigned) [Example 513, N-(6,7-difluoro-1-(1-methylcyclobutyl)-1H-benzo[d]imidazol-2-yl)-2-(2,2,3,3-tetrafluorocyclobutyl)acetamide] | < 1000 nM
CC(C(=O)Nc1nc2c(F)cc(C(C)(C)O)cc2n1C1CCC1)C(C)(C)C(F)(F)F (single isomer, unassigned) [Example 515, N-(1-cyclobutyl-4-fluoro-6-(2-hydroxypropan-2-yl)-1H-benzo[d]imidazol-2-yl)-4,4,4-trifluoro-2,3,3-trimethylbutanamide] | < 1000 nM
CC(C)(O)c1cc(F)c2nc(NC(=O)CC3CC(F)(F)C3(F)F)n(C3(C)CCC3)c2c1 (single isomer, unassigned) [Example 519, N-(4-fluoro-6-(2-hydroxypropan-2-yl)-1-(1-methylcyclobutyl)-1H-benzo[d]imidazol-2-yl)-2-(2,2,3,3-tetrafluorocyclobutyl)acetamide] | < 1000 nM
CC1(n2c(NC(=O)CC3CC(F)(F)C3(F)F)nc3cc(F)cc(F)c32)CCC1 (single isomer, unassigned) [Example 523, N-(5,7-difluoro-1-(1-methylcyclobutyl)-1H-benzo[d]imidazol-2-yl)-2-(2,2,3,3-tetrafluorocyclobutyl)acetamide] | < 1000 nM
CC1(n2c(NC(=O)CC3CC(F)(F)C3(F)F)nc3cc(F)ccc32)CCC1 (single isomer, unassigned) [Example 525, N-(5-fluoro-1-(1-methylcyclobutyl)-1H-benzo[d]imidazol-2-yl)-2-(2,2,3,3-tetrafluorocyclobutyl)acetamide] | < 1000 nM
CC1(n2c(NC(=O)CC3CC(F)(F)C3(F)F)nc3cc(F)ccc32)CCC1 (single isomer, unassigned) [Example 526, N-(5-fluoro-1-(1-methylcyclobutyl)-1H-benzo[d]imidazol-2-yl)-2-(2,2,3,3-tetrafluorocyclobutyl)acetamide] | < 1000 nM
